According to ChEMBL document CHEMBL1201862, “PubChem BioAssay data set” (2004):
Active and inactive are the calls of the source.

Tests used:
[1] = Luminescence Cell-Based Dose Response HTS to Identify Inhibitors of 5'UTR Stem-Loop Driven Prion Protein mRNA Translation in H4 Neuroglioblastoma Cells. [Related pubchem assays: 1827 (Project Summary), 1813 (Primary HTS)]; assay type: functional
INS1 = experiment: INS-1E survival protection against cytokine death – cell-based, luminescence, retest, dose response (AID 449756); assay type: functional; conditions: Rattus norvegicus;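 also: cell death triggered by IL-1 beta plus TNF-alpha plus IFN-gamma mixture; protective hits raise ATP signal compared with cytokine alone wells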
[2] = luciferase reporter signal suppression in cells – H4 neuroglioma cells, luminescence, dose response (AID 1990); assay type: functional, cell-based
[3] = alpha-synuclein stem-loop luciferase translation blockers – H4 neuroglioma cells, luminescence, confirmation (AID 1988); assay type: functional, cell-based
[4] = molecular target: T1, Corticotropin-releasing factor receptor 2/Corticotropin-releasing factor-binding protein (Homo sapiens, UniProt P24387+Q13324); experiment: activators of CRF receptor 2 with binding protein – uHTS hits, confirmation (AID 602473); assay type: functional; conditions: read-out: EC50_Mean
T1 sequence (Q13324 whole entry): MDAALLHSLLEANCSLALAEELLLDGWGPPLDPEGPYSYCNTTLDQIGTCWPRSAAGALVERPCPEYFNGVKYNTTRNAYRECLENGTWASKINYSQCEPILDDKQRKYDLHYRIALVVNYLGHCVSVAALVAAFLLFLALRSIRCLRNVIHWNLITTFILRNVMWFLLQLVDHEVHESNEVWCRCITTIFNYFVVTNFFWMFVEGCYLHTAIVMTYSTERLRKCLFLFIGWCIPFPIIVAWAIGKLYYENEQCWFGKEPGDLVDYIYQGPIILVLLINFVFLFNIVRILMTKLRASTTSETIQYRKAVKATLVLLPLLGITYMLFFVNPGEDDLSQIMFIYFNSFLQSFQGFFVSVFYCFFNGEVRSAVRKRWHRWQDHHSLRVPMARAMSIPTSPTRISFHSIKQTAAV
T1 sequence (P24387 whole entry): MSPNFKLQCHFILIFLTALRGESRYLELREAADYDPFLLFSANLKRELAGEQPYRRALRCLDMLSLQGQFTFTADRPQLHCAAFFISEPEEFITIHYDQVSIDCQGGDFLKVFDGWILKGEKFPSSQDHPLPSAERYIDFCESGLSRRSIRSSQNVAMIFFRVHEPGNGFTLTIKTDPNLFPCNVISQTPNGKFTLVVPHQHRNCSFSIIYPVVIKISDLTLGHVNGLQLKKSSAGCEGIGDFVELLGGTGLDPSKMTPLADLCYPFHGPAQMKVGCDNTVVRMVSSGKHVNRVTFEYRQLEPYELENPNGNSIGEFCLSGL

[5] = molecular target: T1, Corticotropin-releasing factor receptor 2/Corticotropin-releasing factor-binding protein; experiment: Dose Response confirmation of uHTS hits for small molecule antagonists of the CRF-binding protein and CRF-R2 receptor complex.; assay type: functional; conditions: read-out: IC50_Mean
Cytochrome P450 3A4 [6] = molecular target: T2, Cytochrome P450 3A4 (Homo sapiens, UniProt P08684); conditions: Potency
[7] = viability of uninfected HEp-2 cells – cell-based, HTS, cytotoxicity control for RSV inhibitor project, dose response (AID 2410); assay type: functional; conditions: human respiratory syncytial virus
[8] = system: Streptococcus sp. 'group A'; experiment: Streptococcus pyogenes SK(-)GAS viability under kanamycin – luminescence, BacTiterGlo, confirmation, counter-screen for streptokinase expression inhibitor project, dose response (AID 1900); assay type: functional, organism-based
Streptococcus = experiment: GAS UMAA2166 growth inhibition – luminescence, BacTiterGlo, counter-screen for streptokinase expression inhibitor project, dose response (AID 1915); assay type: functional, organism-based;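 also: potency for reduction of bacterial viability or growth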
Streptokinase A = molecular target: T3, Streptokinase A (Streptococcus pyogenes serotype M1, UniProt P10520); experiment: viability-normalized secreted streptokinase activity reduction – plasminogen activation absorbance, OD405, dose response (AID 1914); assay type: functional, Streptococcus pyogenes M1 GAS;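 also: secreted streptokinase activity via plasminogen activation per viability signal from cell pellet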
T3 sequence (P10520 whole entry): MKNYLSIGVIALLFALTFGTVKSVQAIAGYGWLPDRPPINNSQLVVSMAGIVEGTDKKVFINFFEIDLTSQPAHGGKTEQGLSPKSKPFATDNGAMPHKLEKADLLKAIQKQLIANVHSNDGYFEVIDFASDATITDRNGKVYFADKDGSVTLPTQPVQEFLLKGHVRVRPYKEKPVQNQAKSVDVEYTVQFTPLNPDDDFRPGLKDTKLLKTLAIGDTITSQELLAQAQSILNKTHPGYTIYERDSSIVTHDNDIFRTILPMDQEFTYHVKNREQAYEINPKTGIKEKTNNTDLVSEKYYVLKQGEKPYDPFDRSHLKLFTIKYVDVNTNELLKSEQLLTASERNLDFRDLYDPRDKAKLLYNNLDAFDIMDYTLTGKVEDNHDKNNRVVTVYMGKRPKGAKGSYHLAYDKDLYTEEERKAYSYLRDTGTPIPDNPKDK

[9] = molecular target: T4, Calpain-2 catalytic subunit (Sus scrofa, UniProt P43367); experiment: m-calpain protease blockers, concentration series – biochemical, fluorogenic peptide substrate, dose response (AID 1420); assay type: functional
T4 sequence (P43367 whole entry): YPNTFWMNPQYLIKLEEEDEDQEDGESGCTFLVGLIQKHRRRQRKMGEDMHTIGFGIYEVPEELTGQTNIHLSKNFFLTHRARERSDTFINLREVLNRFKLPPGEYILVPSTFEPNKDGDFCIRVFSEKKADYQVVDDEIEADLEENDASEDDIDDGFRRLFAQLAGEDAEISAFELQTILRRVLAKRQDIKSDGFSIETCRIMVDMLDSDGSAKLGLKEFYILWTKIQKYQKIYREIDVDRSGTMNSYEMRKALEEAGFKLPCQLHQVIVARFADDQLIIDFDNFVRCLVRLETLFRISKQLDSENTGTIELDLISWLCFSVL

Cytochrome P450 2C9 = Cytochrome P450 2C9 (Homo sapiens, UniProt P11712)
Cytochrome P450 3A4 [10] = molecular target: T2, Cytochrome P450 3A4
[11] = Luminescence Cell-Based Dose Retest to Confirm Inhibitors of Cancer Stem Cells. [Related pubchem assays (depositor defined):AID2717, AID2721]; assay type: functional; conditions: Homo sapiens
[12] = microbe, parasite or virus in culture; assay type: functional; conditions: Mycobacterium tuberculosis
[13] = Luminescence Cell-Based Dose Confirmation HTS to Identify Inhibitors of Platelet Dense Granule Release. [Related pubchem assays: 1663 (Primary HTS), 1678 (Summary of Project)]; assay type: functional
[14] = molecular target: Luciferin 4-monooxygenase (Photinus pyralis, UniProt P08659); experiment: inhibition of purified Photinus pyralis luciferase – biochemical, luminescence, dose response (AID 1891)
Cytochrome P450 2D6 = Cytochrome P450 2D6 (Homo sapiens, UniProt P10635);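 also: CYP2D6 member of a cytochrome P450 panel assay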
Cytochrome P450 2C19 = Cytochrome P450 2C19 (Homo sapiens, UniProt P33261); experiment: Cytochrome panel assay with activity outcomes. Panel member name: p450-cyp2c19 Compounds with AC50 equal or less than 10 uM are considered active; assay type: functional; conditions: read-out: AC50
Cytochrome P450 1A2 = molecular target: T5, Cytochrome P450 1A2 (Homo sapiens, UniProt P05177);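 also: PubChem cytochrome P450 panel assay, CYP1A2 panel member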
T5 sequence (P05177 whole entry): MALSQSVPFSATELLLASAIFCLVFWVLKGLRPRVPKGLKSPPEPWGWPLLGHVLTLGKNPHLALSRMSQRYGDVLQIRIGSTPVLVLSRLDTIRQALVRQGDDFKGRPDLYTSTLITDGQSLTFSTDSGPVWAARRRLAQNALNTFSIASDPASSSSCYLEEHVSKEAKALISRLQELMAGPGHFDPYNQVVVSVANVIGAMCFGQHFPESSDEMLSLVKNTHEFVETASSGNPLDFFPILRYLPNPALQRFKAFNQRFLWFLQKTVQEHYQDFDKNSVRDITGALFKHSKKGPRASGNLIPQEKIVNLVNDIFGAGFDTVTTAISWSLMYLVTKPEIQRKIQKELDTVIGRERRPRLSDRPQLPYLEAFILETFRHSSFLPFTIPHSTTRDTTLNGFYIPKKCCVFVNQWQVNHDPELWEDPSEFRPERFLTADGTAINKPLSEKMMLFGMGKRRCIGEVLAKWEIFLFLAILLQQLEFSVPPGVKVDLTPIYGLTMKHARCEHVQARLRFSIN

T2 sequence (P08684 whole entry): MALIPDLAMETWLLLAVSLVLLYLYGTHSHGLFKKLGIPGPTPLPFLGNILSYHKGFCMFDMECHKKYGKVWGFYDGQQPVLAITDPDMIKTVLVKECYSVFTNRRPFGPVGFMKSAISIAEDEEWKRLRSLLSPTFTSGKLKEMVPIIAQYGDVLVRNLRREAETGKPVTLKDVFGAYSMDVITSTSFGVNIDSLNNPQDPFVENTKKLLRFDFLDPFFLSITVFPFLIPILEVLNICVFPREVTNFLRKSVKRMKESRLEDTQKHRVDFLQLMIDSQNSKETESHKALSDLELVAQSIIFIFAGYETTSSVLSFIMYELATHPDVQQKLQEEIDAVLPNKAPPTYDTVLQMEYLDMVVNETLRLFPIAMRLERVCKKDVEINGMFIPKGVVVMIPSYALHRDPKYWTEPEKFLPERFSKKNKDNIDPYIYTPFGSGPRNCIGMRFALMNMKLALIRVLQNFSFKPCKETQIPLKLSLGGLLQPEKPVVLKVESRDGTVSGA
Cytochrome P450 2C9, sequence (P11712 whole entry): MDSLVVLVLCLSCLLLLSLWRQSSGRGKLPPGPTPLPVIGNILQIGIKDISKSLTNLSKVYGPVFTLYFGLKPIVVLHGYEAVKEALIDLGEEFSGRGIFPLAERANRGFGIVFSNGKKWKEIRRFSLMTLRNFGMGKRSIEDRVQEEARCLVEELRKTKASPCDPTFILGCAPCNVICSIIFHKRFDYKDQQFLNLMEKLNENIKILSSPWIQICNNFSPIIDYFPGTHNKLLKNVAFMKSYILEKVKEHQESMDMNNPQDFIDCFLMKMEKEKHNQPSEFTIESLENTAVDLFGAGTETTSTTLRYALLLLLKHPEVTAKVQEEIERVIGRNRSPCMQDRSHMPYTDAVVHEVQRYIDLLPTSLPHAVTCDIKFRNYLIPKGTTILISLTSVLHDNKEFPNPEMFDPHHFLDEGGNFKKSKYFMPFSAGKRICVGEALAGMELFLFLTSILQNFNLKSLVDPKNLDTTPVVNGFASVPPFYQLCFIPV
Luciferin 4-monooxygenase, sequence (P08659 whole entry): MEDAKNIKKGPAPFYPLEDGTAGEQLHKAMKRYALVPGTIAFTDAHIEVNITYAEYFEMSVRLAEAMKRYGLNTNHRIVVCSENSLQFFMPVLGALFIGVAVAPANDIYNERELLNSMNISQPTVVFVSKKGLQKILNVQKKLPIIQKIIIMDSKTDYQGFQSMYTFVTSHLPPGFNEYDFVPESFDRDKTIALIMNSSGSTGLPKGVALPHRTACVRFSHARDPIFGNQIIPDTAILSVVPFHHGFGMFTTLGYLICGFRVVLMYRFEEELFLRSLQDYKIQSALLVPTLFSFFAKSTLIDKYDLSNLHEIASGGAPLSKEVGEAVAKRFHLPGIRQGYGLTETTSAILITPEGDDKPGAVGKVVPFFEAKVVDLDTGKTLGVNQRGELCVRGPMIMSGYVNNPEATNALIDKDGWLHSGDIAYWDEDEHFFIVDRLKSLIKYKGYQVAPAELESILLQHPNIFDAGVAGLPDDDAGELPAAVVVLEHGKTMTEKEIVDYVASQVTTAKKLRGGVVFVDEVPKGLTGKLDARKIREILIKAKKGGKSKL
Cytochrome P450 2C19, sequence (P33261 whole entry): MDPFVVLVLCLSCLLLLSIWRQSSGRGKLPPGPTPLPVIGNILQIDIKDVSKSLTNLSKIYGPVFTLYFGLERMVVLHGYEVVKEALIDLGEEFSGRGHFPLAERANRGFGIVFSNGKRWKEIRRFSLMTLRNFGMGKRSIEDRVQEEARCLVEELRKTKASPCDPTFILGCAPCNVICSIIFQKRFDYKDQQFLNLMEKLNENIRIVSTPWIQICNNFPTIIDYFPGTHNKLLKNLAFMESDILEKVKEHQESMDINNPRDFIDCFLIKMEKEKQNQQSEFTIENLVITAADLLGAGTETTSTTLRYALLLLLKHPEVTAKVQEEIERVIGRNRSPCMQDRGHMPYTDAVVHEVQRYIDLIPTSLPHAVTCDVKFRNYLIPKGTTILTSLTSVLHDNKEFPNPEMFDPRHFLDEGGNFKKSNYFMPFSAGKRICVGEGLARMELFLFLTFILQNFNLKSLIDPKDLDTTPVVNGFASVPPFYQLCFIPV
Cytochrome P450 2D6, sequence (P10635 whole entry): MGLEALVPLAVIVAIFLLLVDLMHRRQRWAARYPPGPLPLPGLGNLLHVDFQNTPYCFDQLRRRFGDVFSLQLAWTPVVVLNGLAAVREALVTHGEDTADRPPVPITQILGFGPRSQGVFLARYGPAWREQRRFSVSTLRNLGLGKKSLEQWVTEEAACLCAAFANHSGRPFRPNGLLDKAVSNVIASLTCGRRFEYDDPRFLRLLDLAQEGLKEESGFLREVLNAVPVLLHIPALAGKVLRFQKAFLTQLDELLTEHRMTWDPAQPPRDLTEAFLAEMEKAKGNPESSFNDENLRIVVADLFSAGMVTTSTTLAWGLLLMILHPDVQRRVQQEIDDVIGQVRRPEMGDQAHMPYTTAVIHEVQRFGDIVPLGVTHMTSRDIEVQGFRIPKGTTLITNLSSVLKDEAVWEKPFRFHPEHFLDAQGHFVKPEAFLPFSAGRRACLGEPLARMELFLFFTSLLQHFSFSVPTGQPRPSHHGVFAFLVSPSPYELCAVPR

With `CCCCCCC(=O)N1C/C=C\C(c2ccc(OC)cc2)N(Cc2ccc(F)cc2)C(=O)[C@H]1Cc1ccccc1` (stereo partly specified) the EC50 [1] was > 120 µM (not active), the AC50 (INS1) was 6.16 µM (active) and the EC50 [2] was > 120 µM (not active). For the same compound, the EC50 [3] was 9.71 µM (active).
In the case of `CC(=O)c1ccccc1NC(=O)Cn1c(=O)cnc2ccccc21`, the EC50 [4] is reported as > 53 µM (inactive) and the IC50 [5] is reported as > 47.1 µM (inactive).
For `COc1ccc(OC2C(O)COC2/C=C/C#Cc2ccccc2)cc1` (stereo unspecified), the AC50 (Cytochrome P450 3A4 [6]) was 3.98 µM (inconclusive).
For `Cc1ccccc1OC1C(=O)N(Cc2ccc3c(c2)OCO3)C1c1sccc1C` (stereo unspecified), the AC50 (INS1) was 11.4 µM (active).
For `FC(F)(F)c1ccccc1-c1nc(-c2ccncc2)no1`, the CC50 [7] was 30.5 µM (active), the EC50 [4] was > 53 µM (inactive) and the IC50 [5] was > 47.1 µM (inactive).
With `Clc1ccc2nc(-c3ccccn3)c(Nc3ccc4c(c3)OCO4)n2c1` the EC50 [8] was 6.89 µM (active), the EC50 (Streptococcus) was 12.7 µM (active) and the EC50 (Streptokinase A) was > 150 µM (not active). For the same compound, the IC50 [9] was 0.608 µM (not active).
For `COc1ccc2[nH]c3c(c2c1)CCN1C(=O)C(CC(=O)NCCc2ccccn2)C[C@H](C(=O)N(C(C)C)C(C)C)[C@@]31C` (stereo partly specified), the EC50 [4] was > 53 µM (inactive) and the IC50 [5] was > 47.1 µM (inactive).
For `Cc1ccc(C)n1NC(=O)c1ccccc1`, the AC50 (Cytochrome P450 2C9) was 0.141 µM (inconclusive) and the AC50 (Cytochrome P450 3A4 [10]) was 31.6 µM (inconclusive).
For `Cc1ccccc1C(=O)Nc1ccc(-c2nc3cc(C(=O)c4ccccc4)ccc3[nH]2)cc1`, the CC50 [7] was 6.02 µM (active), the AC50 [11] was 1.36 µM (active) and the CC50 [12] was > 40 µM (active).
In the case of `CCc1nnc(NC(=O)[C@@H](NC(=O)c2cc(OC)cc(OC)c2)C(C)C)s1`, the EC50 [13] is reported as > 112 µM (not active), the EC50 [14] is reported as > 112 µM (not active) and the IC50 [9] is reported as 49.9 µM (not active).
In the case of `CCc1cccc2c(SCC(=O)NCC3CCCO3)nc(-c3ccc(F)cc3)nc12` (stereo unspecified), the IC50 [9] is reported as 26.2 µM (not active).
For `CCCC1Cc2c(sc(NC(=S)NC(=O)c3ccccc3)c2C#N)CO1` (stereo unspecified), the IC50 [9] was 31 µM (not active).
With `Cc1ccccc1OCCNc1ccc(C(F)(F)F)cc1[N+](=O)[O-]` the AC50 (Cytochrome P450 2D6) was 5.01 µM (inconclusive), the AC50 (Cytochrome P450 3A4 [10]) was 31.6 µM (inconclusive) and the AC50 (Cytochrome P450 2C19) was 0.316 µM (inconclusive).
With `CC(NC(=O)CCCCCN1C(=O)c2ccccc2C1=O)c1ccc2c(c1)CCCC2` (stereo unspecified) the IC50 [9] was 10.7 µM (not active).
With `Nc1ccc(Nc2ccc([N+](=O)[O-])cc2[N+](=O)[O-])cc1` the AC50 (INS1) was 59.4 µM (active).
For `Cc1ccc(-c2nnc(C)c(N3CC(C)OC(C)C3)n2)cc1` (stereo unspecified), the AC50 (Cytochrome P450 3A4 [10]) was 5.01 µM (inconclusive) and the AC50 (Cytochrome P450 1A2) was 4.47 µM (inconclusive).
In the case of `O=C(COC(=O)COc1ccc(Cl)cc1Br)NCc1cccs1`, the EC50 [4] is reported as > 53 µM (inactive) and the IC50 [5] is reported as > 47.1 µM (inactive).
